These results are taken from patent US9066948B2, “Oxadiazolo[3,2-a]pyrimidines and thiadiazolo[3,2-a]pyrimidines” (THE UNITED STATES OF AMERICA AS REPRESENTED BY THE …, priority 2010, dated 2015).

For one test, the system named is rat platelets. The test is described as follows: ADP-induced platelet aggregation, rat PRP (Example 45). It counts as cell-based. The following applies: 1 μM. On the procedure:
Blood may be drawn via cardiac puncture from anesthetized Sprague Dawley rats (Taconic, Hudson, N.Y.), WT C57B1/6 mice (Jackson Laboratories, Bar Harbor, Me.), and mice expressing hαIIb/mβ3 and diluted 1:1 with a mixture of 4 parts 0.165 […], pH 7.4 containing 2 mM CaCl2 and 1 mM MgCl2. Blood from consenting human volunteers is obtained from a peripheral vein using a 19 gauge needle and anticoagulated with 1:10 vol 3.8% sodium citrate. Platelet-rich plasma (PRP) may be isolated by centrifugation at 22° C. at 350 g for 10 minutes (rats); 250 g for 2.5 minutes (mice); or 650 g for 4 minutes (human). Mouse PRP samples may be adjusted to 400,000 platelets/μl with the buffer used for dilution and human PRP may be adjusted to 300,000 platelets/μl with platelet-poor plasma. […] Platelet aggregation may be induced by adding to PRP adenosine diphosphate (ADP) at 30 μM (rats and WT mice), 20 or 30 μM (hαIIb/mβ3 mice), or 5 μM (humans), and light transmission may be measured over time in an aggregometer (Kowa AG-10E, Tokyo, Japan) with stirring. Percent inhibition may be calculated by comparing the initial slope of untreated samples to the samples treated with the Compounds of the Invention.

The subject of test [1] is washed platelets. The test is described as follows: Effect of Mg2+ concentration on platelet adhesion to fibrinogen. The following applies: for IC50: Homo sapiens, Platelet, mean±SD, three experiments. It counts as cell-based, human. On the procedure: Washed platelets in buffers containing 1 mM Ca^2+ plus 1 mM, 20 mM, or 50 mM Mg^2+ are added to wells pre-coated with fibrinogen (50 μg/ml) for 60 min at 22° C. After washing, adherent platelets are detected by acid phosphatase activity. Results are expressed as mean±SD (n=3 for the compound of Example 27 of the current invention and 2-ethyl-7-(piperazin-1-yl)-5H-[1,3,4]thiadiazolo-[3,2-a]pyrimidin-5-one (a compound disclosed and claimed in U.S. Ser. No. 12/514,286); n=2 for tirofiban).

Test [2] has as its system washed platelets. Put plainly: Platelet adhesion/aggregation to collagen. It is filed as cell-based, human. On the procedure:
(§1) Washed platelets are prepared as per the primary screening assay, suspended in HBMT containing 1 mM MgCl2 (platelet adhesion to collagen) or 2 mM CaCl2/1 mM MgCl2 (platelet adhesion to fibrinogen) and adjusted to a count of 250×10^9/L. HEK293 cells stably expressing normal human αVβ3 or normal human αIIbβ3 are suspended in HBMT containing either 1 mM MgCl2 (HEK293 cells expressing αVβ3 for adhesion to vitronectin) or 2 mM CaCl2/1 mM MgCl2 (HEK293 cells expressing αIIbβ3 for adhesion to fibrinogen); the cell counts are adjusted to 10^6/mL. Polystyrene 96-well microtiter plates (Nunc) are coated with either fibrinogen (50 μg/mL), vitronectin (5 μg/mL), or collagen (33 μg/mL, rat tail type 1; Becton Dickinson) for 1 hour, and blocked with HBMT for at least 1 hour. Platelets and cells are treated with the compound of Example 27 of the current invention or 2-ethyl-7-(piperazin-1-yl)-5H-[1,3,4]thiadiazolo-[3,2-a]pyrimidin-5-one of U.S. Ser. No. 12/514,286 in the presence or absence of anti-α2β1 mAb 6F1, anti-αIIbβ3 mAb 10E5, anti-αIIbβ3 mAb 10E5+αVβ3 mAb 7E3, αVβ3-specific mAb LM609, or anti-αVβ3+αIIbβ3 mAb 7E3, for 15 minutes at 37° C. before being added to the microtiter wells. After adhering for 1 hour at either 22° C. (platelets) or 37° C. (cells), nonadherent platelets or cells are removed by washing 3 times with HBMT containing the same ion composition as the buffer used for adhesion. […] In other experiments, 8-chambered glass coverslips (Nunc) are coated with collagen (33 μg/mL) for 1 hour at 22° C. Washed platelets are allowed to adhere for 1 hour at 22° C. and the coverslips are stained with the Alexa-488-conjugated β3-specific mAb 7H2. Adherent platelets are imaged using a Zeiss LSM-510 confocal system with Axiovert 200 microscope (Carl Zeiss, Heidelberg, Germany) using a Plan-Apochromat 100/1.4 NA oil DIC objective.

For test [3], the target named is T1, HEK293 cells stably expressing normal human αVβ3 (Homo sapiens, UniProt P05106+P06756).
T1 construct: expressed in transfected cells; host or cells: HEK293
T1 sequence (P06756 31-889 limits assumed): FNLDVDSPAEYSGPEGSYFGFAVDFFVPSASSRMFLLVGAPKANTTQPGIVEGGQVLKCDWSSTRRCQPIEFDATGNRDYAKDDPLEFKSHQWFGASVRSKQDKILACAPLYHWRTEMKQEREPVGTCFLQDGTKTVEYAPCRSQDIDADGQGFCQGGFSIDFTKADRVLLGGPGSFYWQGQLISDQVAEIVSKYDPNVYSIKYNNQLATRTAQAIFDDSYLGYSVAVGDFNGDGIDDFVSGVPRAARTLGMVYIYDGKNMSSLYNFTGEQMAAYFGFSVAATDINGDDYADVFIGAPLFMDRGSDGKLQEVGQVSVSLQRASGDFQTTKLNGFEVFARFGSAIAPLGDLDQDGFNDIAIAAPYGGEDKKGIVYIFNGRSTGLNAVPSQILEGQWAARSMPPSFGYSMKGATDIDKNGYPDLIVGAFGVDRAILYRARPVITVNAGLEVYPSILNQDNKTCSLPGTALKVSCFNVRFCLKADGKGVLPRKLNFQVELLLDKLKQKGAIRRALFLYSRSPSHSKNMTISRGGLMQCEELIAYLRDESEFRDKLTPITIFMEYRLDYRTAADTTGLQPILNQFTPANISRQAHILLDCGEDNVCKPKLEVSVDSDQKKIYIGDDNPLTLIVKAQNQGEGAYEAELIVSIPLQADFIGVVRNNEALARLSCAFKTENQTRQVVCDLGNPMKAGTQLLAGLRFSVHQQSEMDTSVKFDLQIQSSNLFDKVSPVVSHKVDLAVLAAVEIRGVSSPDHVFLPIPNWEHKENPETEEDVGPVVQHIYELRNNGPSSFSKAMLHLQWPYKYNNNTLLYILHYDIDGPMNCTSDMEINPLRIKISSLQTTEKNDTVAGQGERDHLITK
T1 sequence (P06756 891-1048 partner limits assumed): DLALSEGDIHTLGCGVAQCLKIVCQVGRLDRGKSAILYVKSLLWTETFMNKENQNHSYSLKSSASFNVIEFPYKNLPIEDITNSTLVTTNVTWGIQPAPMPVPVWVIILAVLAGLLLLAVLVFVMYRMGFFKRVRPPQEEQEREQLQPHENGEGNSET
T1 sequence (P05106 27-788): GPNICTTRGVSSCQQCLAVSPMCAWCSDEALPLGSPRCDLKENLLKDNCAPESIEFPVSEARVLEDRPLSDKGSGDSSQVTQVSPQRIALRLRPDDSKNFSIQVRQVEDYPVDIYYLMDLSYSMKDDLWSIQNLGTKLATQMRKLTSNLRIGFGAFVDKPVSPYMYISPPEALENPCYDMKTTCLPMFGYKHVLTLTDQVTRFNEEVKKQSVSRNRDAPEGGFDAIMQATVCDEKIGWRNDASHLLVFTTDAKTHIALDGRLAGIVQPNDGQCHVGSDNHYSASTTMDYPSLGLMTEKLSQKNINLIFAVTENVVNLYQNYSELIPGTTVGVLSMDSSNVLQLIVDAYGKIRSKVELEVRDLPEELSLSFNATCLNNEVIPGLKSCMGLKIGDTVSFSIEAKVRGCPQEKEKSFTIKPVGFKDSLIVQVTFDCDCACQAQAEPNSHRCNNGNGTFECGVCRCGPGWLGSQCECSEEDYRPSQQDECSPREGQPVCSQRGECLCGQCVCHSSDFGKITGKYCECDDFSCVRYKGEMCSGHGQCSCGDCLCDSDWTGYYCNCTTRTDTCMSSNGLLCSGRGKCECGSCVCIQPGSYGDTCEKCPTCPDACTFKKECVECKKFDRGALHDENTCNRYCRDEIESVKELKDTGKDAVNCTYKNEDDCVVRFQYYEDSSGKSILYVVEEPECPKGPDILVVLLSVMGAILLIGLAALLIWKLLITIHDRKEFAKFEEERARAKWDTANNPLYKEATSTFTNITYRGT
The test is described as follows: αVβ3-mediated cell adhesion to vitronectin. It is filed as cell-based. On the procedure: as §1

For another test, the target named is T2, αIIbβ3 (Homo sapiens, UniProt P05106+P08514).
T2 construct: Washed platelets are prepared in HBMT containing 2 mM CaCl2/1 mM MgCl2; endogenous in cells; host or cells: washed platelets
T2 sequence (P08514 32-887 limits assumed): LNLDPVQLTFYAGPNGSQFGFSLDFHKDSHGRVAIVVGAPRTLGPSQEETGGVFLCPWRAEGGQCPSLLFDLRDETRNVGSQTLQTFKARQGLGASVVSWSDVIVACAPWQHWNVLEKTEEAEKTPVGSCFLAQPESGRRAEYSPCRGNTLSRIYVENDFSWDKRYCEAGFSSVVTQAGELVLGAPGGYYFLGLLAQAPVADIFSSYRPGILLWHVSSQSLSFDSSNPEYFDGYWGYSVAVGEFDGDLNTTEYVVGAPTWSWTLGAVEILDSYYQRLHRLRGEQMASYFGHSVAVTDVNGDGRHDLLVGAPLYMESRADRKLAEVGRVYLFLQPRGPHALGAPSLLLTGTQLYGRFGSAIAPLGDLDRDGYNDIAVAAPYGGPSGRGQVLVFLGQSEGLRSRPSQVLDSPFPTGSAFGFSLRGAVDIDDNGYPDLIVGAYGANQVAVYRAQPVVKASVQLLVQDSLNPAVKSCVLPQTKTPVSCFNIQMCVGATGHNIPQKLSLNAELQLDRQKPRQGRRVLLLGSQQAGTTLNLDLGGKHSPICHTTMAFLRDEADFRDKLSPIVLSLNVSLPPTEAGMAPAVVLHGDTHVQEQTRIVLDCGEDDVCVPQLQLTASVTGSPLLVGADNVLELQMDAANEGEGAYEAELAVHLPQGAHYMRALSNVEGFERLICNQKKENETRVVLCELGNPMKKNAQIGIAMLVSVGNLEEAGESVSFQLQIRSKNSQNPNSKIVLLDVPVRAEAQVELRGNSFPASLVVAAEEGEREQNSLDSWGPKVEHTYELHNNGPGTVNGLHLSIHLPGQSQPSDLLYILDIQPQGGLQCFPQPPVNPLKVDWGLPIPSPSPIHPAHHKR
T2 sequence (P08514 891-1039 partner limits assumed): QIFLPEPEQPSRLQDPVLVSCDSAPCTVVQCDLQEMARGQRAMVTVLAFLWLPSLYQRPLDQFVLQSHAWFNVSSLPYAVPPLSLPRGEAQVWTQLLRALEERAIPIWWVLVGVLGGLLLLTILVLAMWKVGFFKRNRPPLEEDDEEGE
T2 sequence (P05106 27-788): as the sequence (P05106 27-788) above
Put plainly: Induction of ligand-induced binding site (LIBS) epitopes, flow cytometry of washed platelets. The settings on record: eptifibatide 10 μM = 100%, Example 27 at 100 μM. It is filed as cell-based. On the procedure:
Washed platelets are prepared in HBMT containing 2 mM CaCl2/1 mM MgCl2. […] Fluorescently labeled monoclonal antibodies (PMI-1, LIBS-1, AP5, or 10E5; Alexa-488 conjugated; Invitrogen) are then added (20 μL, final concentration: 5 μg/mL) and incubated for 30 minutes at 22° C. in the dark, after which samples are diluted 1:10 in HBMT with CaCl2/MgCl2 for analysis by flow cytometry (FACSCalibur; Becton Dickinson, Franklin Lakes, N.J.). Antibody binding is reported as the geometric mean fluorescence intensity; nonspecific binding is determined by adding a 50-fold excess of unlabeled antibody before adding the labeled antibody. The net normalized fluorescence intensity in the presence of eptifibatide (10 μM, 30 min incubation at 22° C.) is assigned the value of 100%
In general terms: In flow cytometry, cells or beads pass a laser one at a time.

Structures are written as SMILES. Where “and” joins values, the source holds several entries; their conditions need not be identical. Equal values may be shown once.

Take `NCC(=O)Nc1cccc(-c2nn3c(=O)cc(N4CCNCC4)nc3s2)c1` [Example 27, 2-amino-N-(3-(5-oxo-7-(piperazin-1-yl)-5H-[1,3,4]thiadiazolo[3,2-a]pyrimidin-2-yl)phenyl)acetamide]: in the test on rat platelets, the “inhibition of rat platelet aggregation induced by ADP” value is reported as “does not inhibit either mouse or rat platelet aggregation”. Further, in the test with washed platelets [1] (1 to 50 mM Mg2+), the “decrease in affinity going from 1 to 50 mM Mg2+” value is roughly 80% and the “increase in IC50 going from 1 to 50 mM Mg2+” value is on record as roughly 4.5 fold. In the test with washed platelets [1] (1 mM Mg2+), half-maximal inhibition (IC50) was put at 290 ± 100 nM. In the test on washed platelets [1] (20 mM Mg2+), this compound returned an IC50 of 910 ± 210 nM. This compound yielded an IC50 in the test on washed platelets [1] (50 mM Mg2+) of 1300 ± 350 nM. Besides, the “inhibition of platelet adhesion/aggregation to collagen” value in the test on washed platelets [2] (1-100 μM) is reported as roughly 30%. Besides, the “further inhibition of adhesion/aggregation to collagen when combined with anti-αIIbβ3 antibody 10E5” value in the test with washed platelets [2] (combination with mAb 10E5) is reported as “does not further inhibit adhesion/aggregation”. Moreover, the “platelet adhesion to collagen, microscopic analysis” value in the test on washed platelets [2] (confocal microscopy of adherent platelets) is reported as “does not decrease platelet adhesion to collagen”. Further, in test [3], the “selectivity for αIIbβ3 compared to αVβ3” value is “selective for αIIbβ3 compared to αVβ3”. For the same compound, at αIIbβ3, the “AP5 binding, % of the amount in the presence of eptifibatide” value is 18±5% and 18%; the “LIBS1 binding after 30 min, % of the amount in the presence of eptifibatide” value turned out to be 21±3%; the “PMI-1 binding, % of the amount bound by platelets treated with eptifibatide” value came out at 82±13%.

Usually IC50 stands for the concentration that gives 50% inhibition.
